Consider 23 molecules from patent US20090023666A1, “Modulators of Hypoxia Inducible Factor-1 and Related Uses” (priority 2006, published 2009).

A word on the pIC50: it is the negative decadic logarithm of the IC50, by convention in mol/L.

Data set [1] has as its system A549 sentinel line. Kind of data set: Hypoxic stress response induced by cytotoxic agents in A549 sentinel line. It counts as cell-based. Particulars: chemotherapeutic agent alone. From the text:
FIGS. 7A-7E are graphs depicting the stress response of A549 Sentinel Line induced by treatment with Gemcitabine (FIG. 7A) or Gemcitabine in the presence of indicated compound (FIG. 7B-7D). Untreated (control) sample is shown in shadow. […] Similar results can be achieved for other chemotherapeutic agents which induce hypoxic stress, such as paclitaxel, carboplatin, and mitoxantrone.
Similar results were obtained with carboplatin (not shown).

Data set [2] relates to Panc-1 tumors. Kind of data set: In vivo activity against Panc-1 human pancreatic xenograft. Set-up: species or system nude mice. As to conditions: Gemcitabine 40 mg/kg q3d × 4. On the procedure:
Panc-1 tumors were injected subcutaneously (sc) into the flanks of male nude mice. After the tumors reached 60 mg in size, osmotic pumps (model 2002, Alzet Inc., flow rate 0.5 μl/hr) containing 15 mg/ml of BP244 were implanted sc on the opposite sides of the mice. The control animals received pumps containing vehicle (10% captisol, Cyclex Inc.). The mice treated with standard chemotherapy agent received intra-peritoneal injections of Gemcitabine at 40 mg/kg every 3 days for 4 treatments (q3d×4). The experiment was terminated when the control group tumor size reached an average of about 1 gram. Upon termination, the mice were weighed, sacrificed and their tumors excised. The tumors were weighed and the mean tumor weight per group was calculated.
A titration experiment was first performed on BP244 to determine its minimum effective dose against Panc-1 human pancreatic xenograft in nude mice. BP244 (sc, osmotic pumps) was first tested at 15, 10 and 5 mg/ml using Alzet pumps as in previous experiments. Gemcitabine (40 mg/kg; q3d×4, i.p.) was also included in the experiment as a comparison. […]

The subject of data set [3] is Panc-1 (PANC). Kind of data set: Anti-proliferative activity (APA), Panc-1. The class given is cell-based. Particulars: Homo sapiens, PANC-1, read-out: APA (Panc-1) IC50. On the procedure:
(§1) FIG. 8 is a graph depicting the mRNA levels of α-1 and α-3 isoforms quantitated by real time RT-PCR (TaqMan) using fluorescent labeled TaqMan probes. Anti-proliferation (IC50 values) activity of BNC4 on indicated cell lines was determined by MTS assay. Total alpha levels (al+a3) were plotted against (1/IC50) X100 values.

Data set [4] addresses Na-K-ATPase. Briefly: Na-K-ATPase enzyme assay (inorganic phosphate liberated from ATP), pig brain. It counts as biochemical. As to conditions: Pig brain; read-out: ATPase Inh, IC50 Pig brain. On the procedure: (§2) Compounds were tested for their activity on Na-K-ATPase enzyme in an in vitro enzyme assay. The ATPase activity was assayed as the amount of inorganic phosphate liberated from ATP by Dog Kidney or Porcine cerebral cortex Na-K-ATPase.

Data set [5] relates to A549. Kind of data set: cells. It counts as cell-based. As to conditions: Homo sapiens, A549, read-out: APA (A549) IC50. On the procedure:
as §1

Data set [6] deals with Caki-1 (CAKI). Kind of data set: cells. The class given is cell-based. As to conditions: Homo sapiens, CAKI-1, read-out: APA (Caki-1) IC50. The procedure: as §1
Data set [7] deals with 5-aminoimidazole-4-carbox-amide riboside (AICAR). Kind of data set: AICAR-RA reporter assay. The class given is cell-based. Particulars: indicative of the inhibition of glucose metabolism, read-out: AICAR-RA ED50.
In data set [8] the target is T1, Na-K-ATPase (Canis lupus familiaris, UniProt P50997).
T1 construct: liberated from ATP by Dog Kidney or Porcine cerebral cortex Na-K-ATPase; from tissue; host or cells: dog kidney
Kind of data set: Na-K-ATPase enzyme assay (inorganic phosphate liberated from ATP), dog kidney. The class given is biochemical. The procedure:
as §2

The conditions of data set [9]: in vivo; cited from earlier work.

pEC50, pIC50: −log10 of the molar value.

As for `Nc1ccn([C@@H]2O[C@H](CO)[C@@H](O)C2(F)F)c(=O)n1` [Gemcitabine, reference compound], in data set [1], the “hypoxic response visualized by A549 sentinel line” value is given as “further induce hypoxic response”. Also, in data set [2], the “% TGI (d24)” value stood at 65%, the “% Wt Change (d24)” value is given as 2.60% and the “Av. Tumor Weight” value worked out at 414.3 mg.

`C[C@@H]1OC(O[C@@H]2C=C3CCC4C(CC[C@]5(C)[C@@H](c6ccc(=O)oc6)CC[C@]45O)[C@@]3(C)CC2)[C@H](O)[C@H](O)[C@H]1N` (some centres unmarked): the pIC50 in data set [3] was 7.68; in data set [4], 6.27; in [5] it was 8.15; in [6], 7.25.

On to `CN(C)CCN=C1CC[C@@]2(C)C(CCC3C2CC[C@]2(C)[C@@H](c4ccc(=O)oc4)CC[C@]32O)C1` (some centres unmarked), for which the results for the pIC50 in [4], in data set [5] and in [6] were 6.77, 7.60 and 6.96, respectively.

Regarding `CC12CCC(OC(=O)Nc3ccc(F)cc3)C=C1CCC1C2CCC2(C)C(c3ccc(=O)oc3)CCC12O` (centres unmarked), the pIC50 in data set [4] is 6.56; in [5], 7.64; in [6], 6.85. Besides, the pEC50 in [7] is 7.00.

Consider `CCCCNC(=O)OC1C=C2CCC3C(CCC4(C)C(c5ccc(=O)oc5)CCC34O)C2(C)CC1` (centres unmarked), for which the pIC50 is 6.69 in data set [4], 7.62 in [5] and 7.34 in [6]. In addition, the pEC50 in data set [7] was 7.17.

`CC(C)(C)NC(=O)OC1C=C2CCC3C(CCC4(C)C(c5ccc(=O)oc5)CCC34O)C2(C)CC1` (centres unmarked): the pIC50 in data set [4] is 6.68; in data set [5] it was 7.35; in data set [6], 6.56. Besides, in [7], the pEC50 was 6.98.

Turning to `CC12CCC(=NOCCN3CCCCC3)C=C1CCC1C2CCC2(C)C(c3ccc(=O)oc3)CCC12O` (centres unmarked), the pIC50 is 7.80 in [3], 6.79 in [4], 8.15 in data set [5] and 7.57 in [6].

With `CC(=O)N1CCC(C(=O)O[C@@H]2C=C3CCC4C(CC[C@]5(C)[C@@H](c6ccc(=O)oc6)CC[C@]45O)[C@@]3(C)CC2)CC1` (some centres unmarked), the negative-log IC50 (pIC50) in data set [4] is 6.40; in data set [8], 6.57; in data set [5], 7.82; in data set [6], 6.47. Moreover, the pEC50 in data set [7] was 6.88.

As to `CCCNC(=O)OC1C=C2CCC3C(CCC4(C)C(c5ccc(=O)oc5)CCC34O)C2(C)CC1` (centres unmarked), the pIC50 was 6.70 in data set [4], 7.72 in data set [5] and 7.17 in data set [6]. Moreover, in [7], the pEC50 is 6.99.

For `C[C@@H]1O[C@@H](O[C@H]2C[C@@H](O)[C@]3(CO)[C@H]4[C@H](O)C[C@]5(C)[C@@H](C6=CC(=O)OC6)CC[C@]5(O)[C@@H]4CC[C@]3(O)C2)[C@H](O)[C@H](O)[C@H]1O` [BNC1, ouabain], the max. plasma concentration entry in [9] is given as “about 0.03 μg/mL”.

Turning to `CN(C)/N=C1/C=C2CCC3C(CC[C@]4(C)[C@@H](c5ccc(=O)oc5)CC[C@]34O)[C@@]2(C)CC1` (some centres unmarked), the pIC50 in [4] was 6.71; in data set [5] it was 7.64; in [6], 6.93. For the same molecule, the pEC50 in data set [7] is 6.99.

For the molecule `C[C@]12CCC(N)C=C1CCC1C2CC[C@]2(C)[C@@H](c3ccc(=O)oc3)CC[C@]12O` (some centres unmarked), the negative-log IC50 (pIC50) in [4] is 7.03; in [5] it was 8.30; in data set [6], 7.14.

`CCNC(=O)O[C@@H]1C=C2CCC3C(CC[C@]4(C)[C@@H](c5ccc(=O)oc5)CC[C@]34O)[C@@]2(C)CC1` (some centres unmarked): the pIC50 in data set [4] is 6.68; in [8], 6.66; in [5], 7.46; in [6], 7.09. Also, in [7], the pEC50 was 7.12.

As for `COC1O[C@@H]2[C@@H](N)[C@H](C)OC(C[C@@H]3C=C4CCC5C(CC[C@]6(C)[C@@H](c7ccc(=O)oc7)CC[C@]56O)[C@@]4(C)CC3)[C@@H]2O1` (some centres unmarked), the pIC50 in data set [3] is 7.96; in data set [4], 6.69; in data set [5], 8.52; in data set [6] it was 7.92.

As to `CCON=C1C=C2CCC3C(CCC4(C)C(c5ccc(=O)oc5)CCC34O)C2(C)CC1` (centres unmarked), the pIC50 in data set [4] is 7.03; in data set [5] it was 7.85; in data set [6] it was 7.72.

As for `CC12CCC(OC(=O)C3CCNCC3)C=C1CCC1C2CCC2(C)C(c3ccc(=O)oc3)CCC12O` (centres unmarked), the negative logarithm of the IC50 (pIC50) in [4] is 6.87; in [5], 7.70; in data set [6], 6.92. The pEC50 in [7] is 7.00.

With `CN(C)CCON=C1C=C2CCC3C(CCC4(C)C(c5ccc(=O)oc5)CCC34O)C2(C)CC1` (centres unmarked), the values for the negative-log IC50 (pIC50) in data set [4], in data set [5] and in data set [6] were 7.07, 8.70 and 7.62, respectively.

With `COC1O[C@@H]2C(=O)[C@H](C)OC(O[C@@H]3C=C4CCC5C(CC[C@]6(C)[C@@H](c7ccc(=O)oc7)CC[C@]56O)[C@@]4(C)CC3)[C@@H]2O1` (some centres unmarked), the results for the pIC50 in data set [4] and in data set [6] were 6.77 and 7.59, respectively.

On to `CC12CCC(OC(=O)c3ccc(C#N)cc3)C=C1CCC1C2CCC2(C)C(c3ccc(=O)oc3)CCC12O` (centres unmarked), for which the figures for the pIC50 in data set [4], in data set [5] and in [6] were 6.34, 7.26 and 7.08, respectively. In addition, in data set [7], the pEC50 was 6.89.

In the case of `C[C@]12CC[C@H](OC(=O)C3CCNC3)C=C1CCC1C2CC[C@]2(C)[C@@H](c3ccc(=O)oc3)CC[C@]12O` (some centres unmarked), the pIC50 in [4] is 6.32; in data set [8] it was 6.52; in data set [5], 7.32; in data set [6] it was 6.95. Moreover, the pEC50 in [7] is 6.68.

Turning to `C=CCON=C1C=C2CCC3C(CCC4(C)C(c5ccc(=O)oc5)CCC34O)C2(C)CC1` (centres unmarked), the negative-log IC50 (pIC50) in data set [4] is 6.94; in data set [5], 8.05; in data set [6], 7.40.

As for `C[C@@H]1CC(O[C@@H]2C=C3CCC4C(CC[C@]5(C)[C@@H](c6ccc(=O)oc6)CC[C@]45O)[C@@]3(C)CC2)[C@H](O)[C@H](O)[C@@H]1O` (some centres unmarked), the negative-log IC50 (pIC50) in [4] was 6.89; in [5] it was 8.05; in [6], 7.62.

Regarding `C[C@]12CCC(NCCN3CCOCC3)CC1CCC1C2CC[C@]2(C)[C@@H](c3ccc(=O)oc3)CC[C@]12O` (some centres unmarked), the pIC50 in data set [4] was 6.45; in [5] it was 7.00; in data set [6], 6.56.
